From patent US8247211B2, “Glycopeptide antibiotics” (American Cyanamid Company, priority 2001, dated 2012)
Values after ≈ are worked out from the molar mass of the structure shown. Each block holds one compound with its values, some of them ahead of it.

Tests used:
Assay in all cases: In vitro antibacterial evaluation: minimum inhibitory concentration (MIC), broth dilution method
Assay type in all cases: cell-based
Details in all cases: 18 hours at 35° C.
Enterococcus sp. = tested on: Enterococcus sp.
Method in brief: (§1)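 Inoculum: 5×10^5 CFU/mL. Range: 64-0.06 μg/mL. Medium: Muller-Hinton II […]; NCCLS M7-A2 broth dilution. Endpoint: lowest concentration inhibiting growth. Strains include methicillin-, penicillin- and/or vancomycin-resistant clinical isolates.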

Escherichia coli = tested on: Escherichia coli
Method in brief: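 Susceptibility determined by NCCLS-recommended broth dilution (M7-A2), Muller-Hinton II […]. Concentration span 64-0.06 μg/mL, inoculum 5×10^5 CFU/mL. Isolates include strains resistant to methicillin, penicillin and/or vancomycin.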

Staphylococcus sp. = tested on: Staphylococcus sp.
Method in brief: as §1

Streptococcus sp. = tested on: Streptococcus sp.
Method in brief: as §1

[1] = Enterococcus faecalis (GC 2242)
[2] = Enterococcus faecalis (GC 2691)
[3] = Enterococcus faecalis (GC 3059)
[4] = broth dilution, inoculum 5×10^5 CFU/mL
[5] = Streptococcus agalactiae (GC 4564)
[6] = Streptococcus pneumoniae (ATCC 6301)
[7] = Streptococcus pneumoniae (GC 1894)
[8] = Streptococcus pneumoniae (GC 4565)
[9] = Streptococcus pyogenes (GC 4563)

MIC Enterococcus avium (GC 4558) (Enterococcus sp.): 16 µg/mL (≈ 11.3 µM)
MIC Enterococcus faecalis (ATCC 29212) (Enterococcus sp.): 16 µg/mL (≈ 11.3 µM)
MIC Enterococcus faecalis (GC 2242) (Enterococcus sp.; [1]): 16 µg/mL (≈ 11.3 µM)
MIC Enterococcus faecalis (GC 2691) (Enterococcus sp.; [2]): 16 µg/mL (≈ 11.3 µM)
MIC Enterococcus faecalis (GC 3059) (Enterococcus sp.; [3]): 16 µg/mL (≈ 11.3 µM)
MIC Enterococcus faecalis (GC 4552) (Enterococcus sp.): 16 µg/mL (≈ 11.3 µM)
MIC Enterococcus faecalis (GC 4553) (Enterococcus sp.): 16 µg/mL (≈ 11.3 µM)
MIC Enterococcus faecalis (GC 4554) (Enterococcus sp.): 16 µg/mL (≈ 11.3 µM)
MIC Enterococcus faecalis (GC 6189) (Enterococcus sp.): 16 µg/mL (≈ 11.3 µM)
MIC Enterococcus faecium (GC 2243) (Enterococcus sp.): 16 µg/mL (≈ 11.3 µM)
MIC Enterococcus faecium (GC 4556) (Enterococcus sp.): 16 µg/mL (≈ 11.3 µM)
MIC Enterococcus faecium (GC 4557) (Enterococcus sp.): 8 µg/mL (≈ 5.67 µM)
MIC Enterococcus faecalis (GC 2242) (Enterococcus sp.; [4]): 16 µg/mL (≈ 11.3 µM)
MIC Enterococcus faecalis (GC 2691) (Enterococcus sp.; [4]): 16 µg/mL (≈ 11.3 µM)
MIC Enterococcus faecalis (GC 3059) (Enterococcus sp.; [4]): 16 µg/mL (≈ 11.3 µM)
MIC Escherichia coli (ATCC 25922) (Escherichia coli): >64 µg/mL
MIC Escherichia coli (GC 4559) (Escherichia coli): >64 µg/mL
MIC Escherichia coli (GC 4560) (Escherichia coli): 2 µg/mL (≈ 1.42 µM)
MIC Coagulase Negative Staphylococcus (GC 4547) (Staphylococcus sp.): 8 µg/mL (≈ 5.67 µM)
MIC Coagulase Negative Staphylococcus (GC 4548) (Staphylococcus sp.): 4 µg/mL (≈ 2.83 µM)
MIC Coagulase Negative Staphylococcus (GC 4549) (Staphylococcus sp.): 4 µg/mL (≈ 2.83 µM)
MIC Coagulase Negative Staphylococcus (GC 4551) (Staphylococcus sp.): 16 µg/mL (≈ 11.3 µM)
MIC Coagulase Negative Staphylococcus (GC 6257) (Staphylococcus sp.): 2 µg/mL (≈ 1.42 µM)
MIC Staphylococcus aureus (ATCC 29213) (Staphylococcus sp.): 8 µg/mL (≈ 5.67 µM)
MIC Staphylococcus aureus (GC 1131) (Staphylococcus sp.): 8 µg/mL (≈ 5.67 µM)
MIC Staphylococcus aureus (GC 3051) (Staphylococcus sp.): 8 µg/mL (≈ 5.67 µM)
MIC Staphylococcus aureus (GC 3053) (Staphylococcus sp.): 8 µg/mL (≈ 5.67 µM)
MIC Staphylococcus aureus (GC 4541) (Staphylococcus sp.): 4 µg/mL (≈ 2.83 µM)
MIC Staphylococcus aureus (GC 4542) (Staphylococcus sp.): 4 µg/mL (≈ 2.83 µM)
MIC Staphylococcus aureus (GC 4544) (Staphylococcus sp.): 8 µg/mL (≈ 5.67 µM)
MIC Staphylococcus aureus (GC 4545) (Staphylococcus sp.): 4 µg/mL (≈ 2.83 µM)
MIC Staphylococcus aureus-SMITH (GC 4543) (Staphylococcus sp.): 8 µg/mL (≈ 5.67 µM)
MIC Streptococcus agalactiae (GC 4564) (Streptococcus sp.; [5]): 2 µg/mL (≈ 1.42 µM)
MIC Streptococcus pneumoniae (ATCC 6301) (Streptococcus sp.; [6]): 1 µg/mL (≈ 0.708 µM)
MIC Streptococcus pneumoniae (GC 1894) (Streptococcus sp.; [7]): 0.5 µg/mL (≈ 0.354 µM)
MIC Streptococcus pneumoniae (GC 4565) (Streptococcus sp.; [8]): 0.5 µg/mL (≈ 0.354 µM)
MIC Streptococcus pyogenes (GC 4563) (Streptococcus sp.; [9]): 2 µg/mL (≈ 1.42 µM)
MIC Streptococcus agalactiae (GC 4564) (Streptococcus sp.; [4]): 2 µg/mL (≈ 1.42 µM)
MIC Streptococcus pneumoniae (ATCC 6301) (Streptococcus sp.; [4]): 1 µg/mL (≈ 0.708 µM)
MIC Streptococcus pneumoniae (GC 1894) (Streptococcus sp.; [4]): 0.5 µg/mL (≈ 0.354 µM)
MIC Streptococcus pneumoniae (GC 4565) (Streptococcus sp.; [4]): 0.5 µg/mL (≈ 0.354 µM)
MIC Streptococcus pyogenes (GC 4563) (Streptococcus sp.; [4]): 2 µg/mL (≈ 1.42 µM)
SMILES: CC(c1ccccc1)C1NC(=O)CNC(=O)C(CO)NC(=O)C(C(O)C2CNC(=N)N2C2OC(CO)C(O)C(O)C2O)NC(=O)C(C(O)C2CNC(=N)N2)NC(=O)C(Cc2ccc(OC3OC(CO)C(OC4OC(COCC=Cc5ccccc5)C(O)C(O)C4O)C(O)C3O)cc2)NC1=O (stereo not drawn) [Example 242, Cyclo[glycyl-β-methylphenylalanyl-O-[4-O-[6-O-(3-phenylprop-2-en-1-yl)hexopyranosyl]-hexopyranosyl]tyrosyl-3-(2-iminoimidazolidin-4-yl)seryl-3-(3-hexopyranosyl-2-iminoimidazolidin-4-yl)serylseryl]]
MIC Staphylococcus haemolyticus (GC 4546) (Staphylococcus sp.): 4 µg/mL (≈ 2.83 µM)

MIC Enterococcus avium (GC 4558) (Enterococcus sp.): 32 µg/mL (≈ 22 µM)
MIC Enterococcus faecalis (ATCC 29212) (Enterococcus sp.): >64 µg/mL
MIC Enterococcus faecalis (GC 2242) (Enterococcus sp.; [1]): 64 µg/mL (≈ 44 µM)
MIC Enterococcus faecalis (GC 2691) (Enterococcus sp.; [2]): >64 µg/mL
MIC Enterococcus faecalis (GC 3059) (Enterococcus sp.; [3]): >64 µg/mL
MIC Enterococcus faecalis (GC 4552) (Enterococcus sp.): >64 µg/mL
MIC Enterococcus faecalis (GC 4553) (Enterococcus sp.): 64 µg/mL (≈ 44 µM)
MIC Enterococcus faecalis (GC 4554) (Enterococcus sp.): >64 µg/mL
MIC Enterococcus faecalis (GC 6189) (Enterococcus sp.): 64 µg/mL (≈ 44 µM)
MIC Enterococcus faecium (GC 2243) (Enterococcus sp.): 64 µg/mL (≈ 44 µM)
MIC Enterococcus faecium (GC 4556) (Enterococcus sp.): >64 µg/mL
MIC Enterococcus faecium (GC 4557) (Enterococcus sp.): 32 µg/mL (≈ 22 µM)
MIC Enterococcus faecalis (GC 2242) (Enterococcus sp.; [4]): 64 µg/mL (≈ 44 µM)
MIC Enterococcus faecalis (GC 2691) (Enterococcus sp.; [4]): >64 µg/mL
MIC Enterococcus faecalis (GC 3059) (Enterococcus sp.; [4]): >64 µg/mL
MIC Escherichia coli (ATCC 25922) (Escherichia coli): >64 µg/mL
MIC Escherichia coli (GC 4559) (Escherichia coli): >64 µg/mL
MIC Escherichia coli (GC 4560) (Escherichia coli): 64 µg/mL (≈ 44 µM)
MIC Coagulase Negative Staphylococcus (GC 4547) (Staphylococcus sp.): 64 µg/mL (≈ 44 µM)
MIC Coagulase Negative Staphylococcus (GC 4548) (Staphylococcus sp.): 32 µg/mL (≈ 22 µM)
MIC Coagulase Negative Staphylococcus (GC 4549) (Staphylococcus sp.): 32 µg/mL (≈ 22 µM)
MIC Coagulase Negative Staphylococcus (GC 4551) (Staphylococcus sp.): 64 µg/mL (≈ 44 µM)
MIC Coagulase Negative Staphylococcus (GC 6257) (Staphylococcus sp.): 32 µg/mL (≈ 22 µM)
MIC Staphylococcus aureus (ATCC 29213) (Staphylococcus sp.): 64 µg/mL (≈ 44 µM)
MIC Staphylococcus aureus (GC 1131) (Staphylococcus sp.): 64 µg/mL (≈ 44 µM)
MIC Staphylococcus aureus (GC 3051) (Staphylococcus sp.): 64 µg/mL (≈ 44 µM)
MIC Staphylococcus aureus (GC 3053) (Staphylococcus sp.): 64 µg/mL (≈ 44 µM)
MIC Staphylococcus aureus (GC 4541) (Staphylococcus sp.): 64 µg/mL (≈ 44 µM)
MIC Staphylococcus aureus (GC 4542) (Staphylococcus sp.): 64 µg/mL (≈ 44 µM)
MIC Staphylococcus aureus (GC 4544) (Staphylococcus sp.): 64 µg/mL (≈ 44 µM)
MIC Staphylococcus aureus (GC 4545) (Staphylococcus sp.): 64 µg/mL (≈ 44 µM)
MIC Staphylococcus aureus-SMITH (GC 4543) (Staphylococcus sp.): 64 µg/mL (≈ 44 µM)
MIC Streptococcus agalactiae (GC 4564) (Streptococcus sp.; [5]): 32 µg/mL (≈ 22 µM)
MIC Streptococcus pneumoniae (ATCC 6301) (Streptococcus sp.; [6]): 32 µg/mL (≈ 22 µM)
MIC Streptococcus pneumoniae (GC 1894) (Streptococcus sp.; [7]): 8 µg/mL (≈ 5.5 µM)
MIC Streptococcus pneumoniae (GC 4565) (Streptococcus sp.; [8]): 16 µg/mL (≈ 11 µM)
MIC Streptococcus pyogenes (GC 4563) (Streptococcus sp.; [9]): 32 µg/mL (≈ 22 µM)
MIC Streptococcus agalactiae (GC 4564) (Streptococcus sp.; [4]): 32 µg/mL (≈ 22 µM)
MIC Streptococcus pneumoniae (ATCC 6301) (Streptococcus sp.; [4]): 32 µg/mL (≈ 22 µM)
MIC Streptococcus pneumoniae (GC 1894) (Streptococcus sp.; [4]): 8 µg/mL (≈ 5.5 µM)
MIC Streptococcus pneumoniae (GC 4565) (Streptococcus sp.; [4]): 16 µg/mL (≈ 11 µM)
MIC Streptococcus pyogenes (GC 4563) (Streptococcus sp.; [4]): 32 µg/mL (≈ 22 µM)
SMILES: CC(c1ccccc1)C1NC(=O)CNC(=O)C(CO)NC(=O)C(C(O)C2CNC(=N)N2C2OC(CO)C(O)C(O)C2O)NC(=O)C(C(O)C2CNC(=N)N2)NC(=O)C(Cc2ccc(OC3OC(CO)C(OC4OC(COCC=Cc5ccc(N(C)C)cc5)C(O)C(O)C4O)C(O)C3O)cc2)NC1=O (centres unmarked) [Example 243]
MIC Staphylococcus haemolyticus (GC 4546) (Staphylococcus sp.): 64 µg/mL (≈ 44 µM)
